# Data published in patent publication US9829499B2, “Method and related systems for use with a fluidics device” (SciKon Innovation, Inc., priority 2015, dated 2017).
# Where two headings read alike, the source gives them in different places.
# Columns and labels:
# [1] = system: cultured cells; test: Viable cells by CellTiter-Glo, static plates versus fluidics device cultured cells treated over 7 and 9 days; type: cell-based
# Text: Referring to FIG. 46, a comparison of static plates and fluidics device 100 cultured cells treated with acetaminophen (APAP) over 7 and 9 days is depicted. CellTiter-Glo was used to measure viable cells. Data is normalized to vehicle (DMSO) control.
# [2] = system: HepG2 cells
# Protocol: (§1) To compare the effects of flow on response of HepG2 cells to Tamoxifen, cells were treated in the wells of the fluidics device where the drug was applied either to the source well at two different rates (2× and 3×), or was applied directly to individual wells in the absence of flow (static). For each condition, HepG2 cells were seeded into the individual wells of the fluidics device at a density of 30,000 cells per well in 50 uL media. This density corresponded to approximately 60% confluence. […] HepG2 cells in a fluidics device were treated with increasing concentrations of Tamoxifen over time. 150 uM of Tamoxifen was infused into the source well of the fluidics device either 2 times per day (2×) or three times per day (3×). Two acellular rows were infused with 1 uM Fluorscein to enable calculation of absolute concentration at any given time. The reagent CellTox™ Green was used to monitor cellular toxicity. Area under the curve values for each timepoint were obtained and plotted against effect expressed as a % maximum of (treated/control). Data was pooled together to obtain a single plot. EC50 values were calculated by a Sigmoid EMax model in PKSolver.
# (§2) For the 2× and 3× experiment, to utilize Fluorescein as a standard for concentration, rows A and B remained acellular. After acclimating one day, media was changed to media containing a 1:2000 dilution of CellTox™ Green using volume of 100 uL per well. 400 uL of CellTox™ Green containing media was also added to the source well. Fluidic connections were allowed to form and stabilize for 30 minutes at 37° C. in a humidified incubator. Once fluid connections in each row was confirmed, 200 uL of media containing CellTox™ Green with either 150 uM Tamoxifen in 0.1% DMSO or 0.1% DMSO alone was added to the source well. To rows A&B, 200 uL of 1 uM Fluorescein in 0.1% DMSO was added to the source well. For all conditions, fluorescence was monitored using a Tecan Infinite Pro M1000 multimode plate reader optimized for Z-heights focal plane. For the 2× and 3× plates, media flow was maintained by syphoning 100 uL from well 11 and applying 100 uL fresh dosing solution to the source well at cadence corresponding to twice pre day (2×) or three times per day (3×).
# (§3) For static fluid conditions, after seeding, cells acclimated for one day and then media was changed to 50 uL of media containing the noted concentration of Tamoxifen in 0.1% DMSO or 0.1% DMSO alone. Incubation proceeded for 24 hours where analysis of fluorescence determined the degree of cell death in each well. Nine replicates of each concentration were averaged.
# (§4) For determining the concentration at any given time in the 2× and 3× flow plates, the RFU values obtained from the a-cellular Fluorescein control rows were averaged for each column and an actual Fluorescein concentration was determined using the Fluorescein Standard curve (see FIG. 33). The starting concentration of Fluorescein was 1 uM and the starting concentration of Tamoxifen was 150 uM therefore, the amount of fluorescein in each well was multiplied by 150 to obtain the corresponding concentration of Tamoxifen. The area under the curve (AUC) for each timepoint was obtained by multiplying the concentration value by the time in hours since the last time point using the AUCt function in PKSolver. For static conditions, the concentration was constant for the entire treatment time, therefore to obtain AUC the concentration was multiplied by 24 hours. […]
# [3] = system: HepG2 cells; test: Cytotoxicity of HepG2 cells with CellTox Green, fluidics device (flow) versus static culture, EC50 based on AUC exposure
# Protocol: as §1, §2, §3, §4
Observed EC-50 in downstream wells versus expected when using standard static culture methods [2],SMILES,"toxicity (viable cells, normalized to vehicle control) ([1]; fluidics device, Day 7)","toxicity (viable cells, normalized to vehicle control) ([1]; fluidics device, Day 9)","toxicity (viable cells, normalized to vehicle control) ([1]; static plate, Day 9, 2.5 mM)","toxicity (viable cells, normalized to vehicle control) ([1]; static plate, Day 9, highest concentration 5 mM)","toxicity (viable cells, normalized to vehicle control) ([1]; static plates, Day 7)",what the observed EC50 suggests (effect of metabolism on cytotoxicity) [2],"sensitivity of HepG2 cells in the flow system relative to static systems (comparison of AUC EC-50s) ([3]; CellTox Green, flow system less sensitive than static)",Observed EC-50 in downstream wells versus expected when using standard static culture methods ([3]; fluidics device downstream wells),what the observed EC50 suggests (effect of metabolism on cytotoxicity) ([3]; fluidics device downstream wells versus static)
different from expected,"CC(=O)Nc1ccc(O)cc1 [APAP, Acetaminophen]",downstream cell death effect,More pronounced downstream metabolite effect,marginal effect,obvious cell death,marginally detectable only at highest concentration,bio-activation of a toxic intermediate,,,
,CC/C(=C(\c1ccccc1)c1ccc(OCCN(C)C)cc1)c1ccccc1 [Tamoxifen],,,,,,,approximately 4 fold,different from expected,deactivation
